Assay results: publication PMC6934184, “Selective DNA-PKcs inhibition extends the therapeutic index of localized radiotherapy and chemotherapy” (The Journal of Clinical Investigation, 2019)

Target: T1, LATS1 (Homo sapiens, UniProt O95835)
T1 construct: purchased Thermo Fisher Scientific (Life Technologies) SelectScreen
Experiment: SelectScreen LanthaScreen
Type: binding
Settings: read-out: % displacement
Summary of the method: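 Percent values come from Thermo SelectScreen profiling of NU5455, combining activity and binding assays. CSF1R was run in Z'LYTE format at Km app ATP, and CAMK1 in Adapta format with ATP listed at 10.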

T1 sequence (O95835 whole entry): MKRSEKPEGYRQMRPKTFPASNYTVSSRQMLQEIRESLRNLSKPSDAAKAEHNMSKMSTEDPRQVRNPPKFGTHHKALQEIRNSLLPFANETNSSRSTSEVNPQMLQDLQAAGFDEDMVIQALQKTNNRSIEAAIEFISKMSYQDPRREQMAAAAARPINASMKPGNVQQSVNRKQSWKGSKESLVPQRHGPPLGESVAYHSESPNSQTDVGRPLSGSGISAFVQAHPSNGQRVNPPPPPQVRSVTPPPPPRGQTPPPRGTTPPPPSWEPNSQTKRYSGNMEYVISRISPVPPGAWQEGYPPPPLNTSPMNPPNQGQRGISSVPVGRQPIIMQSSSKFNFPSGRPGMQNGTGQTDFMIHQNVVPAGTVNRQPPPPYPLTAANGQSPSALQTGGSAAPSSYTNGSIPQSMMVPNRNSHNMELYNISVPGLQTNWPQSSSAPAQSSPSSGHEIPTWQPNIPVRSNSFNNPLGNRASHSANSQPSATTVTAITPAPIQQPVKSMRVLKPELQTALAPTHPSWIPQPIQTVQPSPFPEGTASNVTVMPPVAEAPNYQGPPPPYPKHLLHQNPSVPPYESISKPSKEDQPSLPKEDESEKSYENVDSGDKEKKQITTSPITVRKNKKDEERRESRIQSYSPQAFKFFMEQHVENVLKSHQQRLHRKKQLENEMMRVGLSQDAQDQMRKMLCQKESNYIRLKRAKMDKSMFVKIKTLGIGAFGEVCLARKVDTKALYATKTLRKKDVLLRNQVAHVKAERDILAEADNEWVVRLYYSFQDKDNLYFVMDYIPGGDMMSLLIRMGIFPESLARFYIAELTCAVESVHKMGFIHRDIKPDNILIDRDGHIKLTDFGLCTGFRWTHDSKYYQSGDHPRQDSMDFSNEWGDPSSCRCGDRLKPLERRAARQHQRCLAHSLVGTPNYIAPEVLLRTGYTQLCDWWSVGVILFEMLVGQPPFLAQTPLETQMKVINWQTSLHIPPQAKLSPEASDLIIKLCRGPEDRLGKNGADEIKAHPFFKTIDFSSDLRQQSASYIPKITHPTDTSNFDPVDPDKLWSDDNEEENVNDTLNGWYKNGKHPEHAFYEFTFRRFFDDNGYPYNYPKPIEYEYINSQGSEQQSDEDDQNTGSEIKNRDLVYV

SMILES: CN(C(=O)CN1CCOCC1)c1ccc2sc3c(-c4cccc5c(=O)cc(N6CC7CCC(C6)O7)oc45)cccc3c2c1 [NU5455]
- inhibition at 1 µM: -1.3%
